Assay results from the CheMixHub viscosity set.
Where “and” joins values, the source holds several entries; their conditions need not be identical. Equal entries are not always repeated.

Assay: xn = mol fraction of the nth substance listed

C=C(C)C(=O)OCCCCCCC + CCCCCC
viscosity [mPa·s], 101 kPa
Conditions	x1 = 0.002	x1 = 0.005	x1 = 0.01	x1 = 0.02
303 K	0.2814	0.2918	0.2946	0.3052
313 K	0.2567	0.2692	0.2692	0.2801
323 K	0.2346	0.2442	0.247	0.2568

c1ccc(Nc2ccccc2)cc1 + CCCCCC
viscosity
Conditions	298.15 K	303.15 K	308.15 K	313.15 K	318.15 K
101 kPa, x1 = 0.0477	0.3866 mPa·s	0.3675 mPa·s	0.3515 mPa·s	0.3325 mPa·s	0.3164 mPa·s
101 kPa, x1 = 0.1451	–	0.5085 mPa·s	0.4768 mPa·s	0.4472 mPa·s	0.4182 mPa·s
101.33 kPa, x1 = 0.03537	–	0.352 mPa·s	–	–	0.3079 mPa·s
101.33 kPa, x1 = 0.04767	–	0.3675 mPa·s	–	–	0.3164 mPa·s
101.33 kPa, x1 = 0.0477	0.3866 mPa·s	0.3675 mPa·s	0.3515 mPa·s	0.3325 mPa·s	0.3164 mPa·s
101.33 kPa, x1 = 0.05985	–	0.3824 mPa·s	–	–	0.3288 mPa·s
101.33 kPa, x1 = 0.1451	–	0.5085 mPa·s and 0.5085 mPa·s	0.4768 mPa·s	0.4472 mPa·s	0.4182 mPa·s and 0.4182 mPa·s
101.33 kPa, x1 = 0.3067	–	1.53 mPa·s	–	–	0.7796 mPa·s

c1ccc(Nc2ccccc2)cc1 + CCCCCC(=O)O
323.15 K, 101.33 kPa
Conditions	viscosity [mPa·s]
x1 = 0.2111	2.271
x1 = 0.3983	2.789
x1 = 0.5972	3.497
x1 = 0.7957	4.496

CCCCCCCCCCCCO + CCCCCCC
viscosity [mPa·s], 101.33 kPa
Conditions	298.15 K	308.15 K
x1 = 0.0343	0.4411	0.3932
x1 = 0.0687	0.514	0.4523
x1 = 0.1389	0.7038	0.6054
x1 = 0.2173	0.9825	0.8279
x1 = 0.2965	1.372	1.126
x1 = 0.392	2.04	1.632
x1 = 0.4898	2.746	2.224
x1 = 0.5941	4.056	3.199
x1 = 0.7213	5.958	4.858
x1 = 0.7853	7.414	5.854
x1 = 0.8475	9.506	7.073
x1 = 0.9227	11.73	8.856

CC(C)CCCC(C)CCCC(C)CCCCC(C)CCCC(C)CCCC(C)C (stereo not given) + CCCCCCCC
viscosity [mPa·s], 100 kPa
Conditions	x1 = 0.238	x1 = 0.492	x1 = 0.709
293.15 K	2.43	7.43	15.6
313.15 K	1.6	4.27	7.68

CCCOC(=O)CCC + CCCCCCCCCC
298.15 K, 101.33 kPa
Conditions	viscosity [mPa·s]
x2 = 0.107	0.775
x2 = 0.1388	0.773
x2 = 0.1735	0.771
x2 = 0.2644	0.768
x2 = 0.3659	0.768
x2 = 0.4232	0.769
x2 = 0.5092	0.773
x2 = 0.6715	0.79
x2 = 0.7654	0.804
x2 = 0.8807	0.828
x2 = 0.9329	0.841

CCc1cccc(CC)c1 + CCCCCCCCCCCC
viscosity [mPa·s], 102 kPa
Conditions	x1 = 0.0991	x1 = 0.2011	x1 = 0.2996	x1 = 0.4004	x1 = 0.5006	x1 = 0.5983	x1 = 0.6998	x1 = 0.7998	x1 = 0.9001
293.15 K	1.4	1.31	1.23	1.16	1.09	1.03	0.971	0.927	0.885
303.15 K	1.18	1.11	1.05	1	0.94	0.9	0.852	0.811	0.778
313.15 K	1.01	0.962	0.916	0.871	0.831	0.792	0.751	0.717	0.69
323.15 K	0.886	0.843	0.806	0.768	0.735	0.703	0.67	0.642	0.618

CCCOC(=O)CCC + CCCCCCCCCCCCCC
298.15 K, 101.33 kPa
Conditions	viscosity [mPa·s]
x2 = 0.0852	0.852
x2 = 0.1135	0.877
x2 = 0.154	0.911
x2 = 0.2133	0.967
x2 = 0.2994	1.054
x2 = 0.3667	1.127
x2 = 0.4774	1.25
x2 = 0.6061	1.413
x2 = 0.7085	1.558
x2 = 0.8446	1.786
x2 = 0.9178	1.909

CC(C)CCCC(C)CCCC(C)CCCC(C)C (stereo not given) + CCCCCCCCCCCCCCCC
298.15 K, 101.33 kPa
Conditions	viscosity [mPa·s]
x2 = 0.0966	5.129
x2 = 0.1996	4.843
x2 = 0.2995	4.565
x2 = 0.3995	4.303
x2 = 0.4994	4.063
x2 = 0.5995	3.839
x2 = 0.6995	3.631
x2 = 0.8001	3.438
x2 = 0.85	3.332

CC(C)CCCC(C)CCCC(C)CCCCC(C)CCCC(C)CCCC(C)C (stereo not given) + CCCCCCCCCCCCCCCC
298.15 K, 101.33 kPa
Conditions	viscosity [mPa·s]
x2 = 0.045	26.05
x2 = 0.099	23.59
x2 = 0.1473	21.54
x2 = 0.2008	19.45
x2 = 0.2977	16.16
x2 = 0.4495	11.84
x2 = 0.6011	8.569
x2 = 0.8001	5.307

CCCCCCCCCCCCO + CCCCCCCCCCCO
viscosity [mPa·s], 101.8 kPa
Conditions	x2 = 0.105	x2 = 0.3165	x2 = 0.5196	x2 = 0.7165	x2 = 0.9076
298.15 K	16.69	16.05	15.53	15	14.51
308.15 K	11.29	10.91	10.58	10.23	9.905
318.15 K	7.895	7.633	7.418	7.19	6.977

CCCCCCCCCCCCO + CCCCCCCCCCO
viscosity [mPa·s], 101.8 kPa
Conditions	x2 = 0.1151	x2 = 0.3347	x2 = 0.5407	x2 = 0.7346	x2 = 0.9162
298.15 K	16.35	15.13	14.02	13.03	12.15
308.15 K	11.08	10.31	9.627	8.957	8.384
318.15 K	7.752	7.245	6.775	6.357	5.973

CCCCCCCCCCCCO + CCCCCCCCCO
viscosity [mPa·s], 101.8 kPa
Conditions	x2 = 0.1246	x2 = 0.3557	x2 = 0.5641	x2 = 0.7516	x2 = 0.9218
298.15 K	15.91	14.07	12.49	11.2	10.02
308.15 K	10.86	9.686	8.677	7.814	7.056
318.15 K	7.599	6.831	6.182	5.591	5.091

CC(C)CCCC(C)CCCC(C)CCCCC(C)CCCC(C)CCCC(C)C (stereo not given) + CCCCCCCCO
Conditions	viscosity [mPa·s]
298.15 K, 101 kPa, x2 = 0.5974	13.55

CCCCCCCCCCCCO + CCCCCCCCO
viscosity [mPa·s], 101.8 kPa
Conditions	x2 = 0.1377	x2 = 0.3798	x2 = 0.589	x2 = 0.7701	x2 = 0.9281
298.15 K	15.08	12.91	11.11	9.509	8.204
308.15 K	10.21	8.958	7.745	6.704	5.873
318.15 K	7.201	6.357	5.553	4.856	4.284

CCCCCCCCCCCCO + CCCCCCCO
viscosity [mPa·s], 101.8 kPa
Conditions	x2 = 0.1535	x2 = 0.4063	x2 = 0.6158	x2 = 0.7897	x2 = 0.937
298.15 K	14.93	11.89	9.619	7.876	6.209
308.15 K	10.25	8.286	6.789	5.642	4.516
318.15 K	7.217	5.917	4.913	4.132	3.362

CCCCCCCCCCCCO + CCCCCCO
viscosity [mPa·s], 101.8 kPa
Conditions	x2 = 0.1701	x2 = 0.4377	x2 = 0.6449	x2 = 0.8097	x2 = 0.9429
298.15 K	14.45	10.7	8.172	6.334	5.053
308.15 K	9.897	7.517	5.841	4.64	3.754
318.15 K	6.978	5.411	4.279	3.455	2.829

Cc1ccc(C)cc1 + CCCCCCO
viscosity, 101 kPa
Conditions	x2 = 0.0999	x2 = 0.1999	x2 = 0.2999	x2 = 0.4001	x2 = 0.4997	x2 = 0.6	x2 = 0.7	x2 = 0.8	x2 = 0.8999
303.15 K	0.616 mPa·s and 0.616 mPa·s	0.693 mPa·s and 0.693 mPa·s	0.799 mPa·s and 0.799 mPa·s	0.946 mPa·s and 0.946 mPa·s	1.148 mPa·s and 1.148 mPa·s	1.42 mPa·s and 1.42 mPa·s	1.801 mPa·s and 1.801 mPa·s	2.323 mPa·s and 2.323 mPa·s	3.004 mPa·s and 3.004 mPa·s
313.15 K	0.544 mPa·s and 0.544 mPa·s	0.605 mPa·s and 0.605 mPa·s	0.689 mPa·s and 0.689 mPa·s	0.802 mPa·s and 0.802 mPa·s	0.956 mPa·s and 0.956 mPa·s	1.156 mPa·s and 1.156 mPa·s	1.433 mPa·s and 1.433 mPa·s	1.806 mPa·s and 1.806 mPa·s	2.295 mPa·s and 2.295 mPa·s
323.15 K	0.485 mPa·s and 0.485 mPa·s	0.533 mPa·s and 0.533 mPa·s	0.6 mPa·s and 0.6 mPa·s	0.689 mPa·s and 0.689 mPa·s	0.807 mPa·s and 0.807 mPa·s	0.958 mPa·s and 0.958 mPa·s	1.161 mPa·s and 1.161 mPa·s	1.433 mPa·s and 1.433 mPa·s	1.788 mPa·s and 1.788 mPa·s
